Test results as given in patent US20220135539A1, “BIARYL AMIDE COMPOUNDS, PREPARATION METHODS AND MEDICAL APPLICATIONS THEREOF” (Eternity Bioscience Inc., priority 2020, published 2022).

How the values were obtained:
[1] = test system: NCI-H358 (KRAS^G12C) non-small cell lung cancer cell; experiment: NCI-H358 Cancer Cell Growth Inhibition Assay (CellTiter-Glo); assay type: cell-based, human; details: for GI50: Homo sapiens, 72 h, NCI-H358 cells, incubated for 3 days, CellTiter-Glo
Procedure: Activity of human NCI-H358 (KRAS^G12C) non-small cell lung cancer cell growth inhibition was assessed in vitro using CellTiter-Glo® Luminescent Cell Viability Assay. The assay was performed according to the kit instructions (Promega, cat #G7570). Briefly, NCI-H358 cells (ATCC, #CRL-5807) were seeded in 96-well plates at a density of 2,500 cells/well in and cells were cultured overnight in a humidified, 5% CO2 cell culture incubator at 37° C. 10 μL serial diluted compounds were added into each cell-culture well and incubated for 3 days. 100 μL CellTiter-Glo® Reagent was added into each well. The reactions were incubated at Room Temperature for 10 minutes, and luminescence signals were recorded on a Tecan Luminescence Plate Reader. Inhibition data were calculated by comparison to vehicle control wells for 0% inhibition and non-stimulated control wells for 100% inhibition. Dose response curves were then generated to determine the concentration required to suppress 50% of cellular growth response (GI50) as derived by non-linear regression analysis using GraphPad Prism.

[2] = test system: A375 (BRAF^V600E) malignant melanoma cell; experiment: A375 Cell Growth Inhibition Assay (CellTiter-Glo); assay type: cell-based, human; details: for GI50: Homo sapiens, A-375, 72 h, A375 cells, incubated for 3 days, CellTiter-Glo
Procedure: Activity of human A375 (BRAF^V600E) malignant melanoma cell growth inhibition was assessed in vitro using CellTiter-Glo® Luminescent Cell Viability Assay. The assay was performed according to the kit instructions (Promega, cat #G7570). Briefly, A375 cells (ATCC, #CRL-1619™) were seeded in 96-well plates at a density of 2,500 cells/well in 90 and cells were cultured overnight in a humidified, 5% CO2 cell culture incubator at 37° C. 10 μL serial diluted compounds were added into each cell-culture well and incubated for 3 days. […] Reagent was added into each well. The reactions were incubated at Room Temperature for 10 minutes, and luminescence signals were recorded on a Tecan Luminescence Plate Reader. Inhibition data were calculated by comparison to vehicle control wells for 0% inhibition and non-stimulated control wells for 100% inhibition. Dose response curves were then generated to determine the concentration required to suppress 50% of cellular growth response (GI50) as derived by non-linear regression analysis using GraphPad Prism.

[3] = target: human recombinant cRAF (Homo sapiens, UniProt P04049); experiment: cRAF Inhibition Assay (TR-FRET); assay type: biochemical
Procedure: (§1) Activity of human recombinant cRAF were assessed in vitro using time-resolved fluorescence resonance energy transfer (TR-FRET) assay. The assay was performed according to the kit instructions. Briefly, the cRAF enzyme (BPS Bioscience, cat #40008) was diluted to 0.027 ng/μL using the 1× kinase buffer A (Life Tech, cat #PV6135, 5× dilution with H2O); the Fluorescein labeled-MAP2K1 (Life Tech, Cat #PV4812) was diluted to 0.5 μM; ATP (Life Tech, cat #PV3227) was diluted to 20 μM; 2.54, of each diluted reagent was added to a 384-well plate (PerkinElmer, ProxiPlate-384 Plus, 6008280) and mixed together; 2.54, serial diluted compound were added into the mixture. 104, 400-fold diluted LanthaScreen Tb-pMAP2K1 (pSer217/221) antibody (Life Tech, cat #PV4817) was then added to each kinase reaction. The reactions were incubated at Room Temperature for 1 hour. The plate was then read on PHERAstar FSX using 340/490/520 module. Inhibition data were calculated by comparison to vehicle control wells for 0% inhibition and non-stimulated control wells for 100% inhibition. Dose response curves were then generated to determine the concentration required to suppress 50% of enzymatic response (IC50) as derived by non-linear regression analysis using GraphPad Prism.

[4] = test system: Calu6 (KRAS^Q16K) cancer cell; experiment: Calu6 Cancer Cell Growth Inhibition Assay (CellTiter-Glo); assay type: cell-based, human; details: for GI50: Homo sapiens, Calu-6, 72 h, Calu6 cells, incubated for 3 days, CellTiter-Glo
Procedure: Activity of human Calu6 (KRAS^Q16K) cancer cell growth inhibition was assessed in vitro using CellTiter-Glo® Luminescent Cell Viability Assay. The assay was performed according to the kit instructions (Promega, cat #G7570). Briefly, Calu6 cells (ATCC, #HTB-56™) were seeded in 96-well plates at a density of 2,500 cells/well in 90 and cells were cultured overnight in a humidified, 5% CO2 cell culture incubator at 37° C. 10 μL serial diluted compounds were added into each cell-culture well and incubated for 3 days. 100 μL CellTiter-Glo® Reagent was added into each well. The reactions were incubated at Room Temperature for 10 minutes, and luminescence signals were recorded on a Tecan Luminescence Plate Reader. Inhibition data were calculated by comparison to vehicle control wells for 0% inhibition and non-stimulated control wells for 100% inhibition. Dose response curves were then generated to determine the concentration required to suppress 50% of cellular growth response (GI50) as derived by non-linear regression analysis using GraphPad Prism.

[5] = target: T1, human recombinant V600E mutant BRAF (Homo sapiens, UniProt P15056, V600E); experiment: BRAF^V600E Inhibition Assay (TR-FRET); assay type: biochemical
T1 construct: purchased BPS Bioscience 40533
Procedure: Activity of human recombinant V600E mutant BRAF were assessed in vitro using time-resolved fluorescence resonance energy transfer (TR-FRET) assay. The assay was performed according to the kit instructions. Briefly, the V600E mutant BRAF enzyme (BPS Bioscience, cat #40533) was diluted to 0.027 ng/μL using the 1× kinase buffer A (Life Tech, cat #PV6135, 5× dilution with H2O); the Fluorescein labeled-MAP2K1 (Life Tech, Cat #PV4812) was diluted to 0.5 μM; ATP (Life Tech, cat #PV3227) was diluted to 20 μM; 2.5 μl of each diluted reagent was added to a 384-well (PerkinElmer, ProxiPlate-384 Plus, 6008280) plate and mixed together; 2.54, serial diluted compounds were added into the mixture. 104, 400-fold diluted LanthaScreen Tb-pMAP2K1 (pSer217/221) antibody (Life Tech, cat #PV4817) was then added to each kinase reaction. The reactions were incubated at Room Temperature for 1 hour. The plate was then read on PHERAstar FSX using 340/490/520 module. Inhibition data were calculated by comparison to vehicle control wells for 0% inhibition and non-stimulated control wells for 100% inhibition. Dose response curves were then generated to determine the concentration required to suppress 50% of enzymatic response (IC50) as derived by non-linear regression analysis using GraphPad Prism.

[6] = target: T2, human recombinant BRAF (Homo sapiens, UniProt P15056); experiment: BRAF^WT Inhibition Assay (TR-FRET); assay type: biochemical
T2 construct: purchased BPS Bioscience 40065
Procedure: as §1, with “BRAF” for “cRAF”, “#40065)” for “#40008)”

[7] = test system: RAF Kinase; details: background statement on the reference compound; cited from earlier work

Chain of human recombinant cRAF (P04049 whole entry Y340D/Y341D, form open): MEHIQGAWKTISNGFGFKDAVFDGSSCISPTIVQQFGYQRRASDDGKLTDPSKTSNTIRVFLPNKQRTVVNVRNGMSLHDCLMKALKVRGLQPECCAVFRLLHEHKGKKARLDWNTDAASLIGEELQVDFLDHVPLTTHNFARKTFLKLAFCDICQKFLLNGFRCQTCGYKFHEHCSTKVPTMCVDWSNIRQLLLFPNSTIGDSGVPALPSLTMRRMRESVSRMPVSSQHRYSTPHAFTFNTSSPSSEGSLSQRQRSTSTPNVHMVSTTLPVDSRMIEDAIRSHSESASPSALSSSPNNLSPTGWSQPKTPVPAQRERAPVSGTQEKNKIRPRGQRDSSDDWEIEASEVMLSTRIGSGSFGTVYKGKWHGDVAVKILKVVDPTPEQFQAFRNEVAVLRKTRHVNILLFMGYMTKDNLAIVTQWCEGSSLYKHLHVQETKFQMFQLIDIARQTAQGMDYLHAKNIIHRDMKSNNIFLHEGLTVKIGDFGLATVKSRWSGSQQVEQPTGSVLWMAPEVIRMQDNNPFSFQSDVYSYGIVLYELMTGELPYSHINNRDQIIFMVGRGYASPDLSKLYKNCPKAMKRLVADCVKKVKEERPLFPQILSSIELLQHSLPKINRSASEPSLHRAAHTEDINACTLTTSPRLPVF
T1 sequence (P15056 whole entry V600E): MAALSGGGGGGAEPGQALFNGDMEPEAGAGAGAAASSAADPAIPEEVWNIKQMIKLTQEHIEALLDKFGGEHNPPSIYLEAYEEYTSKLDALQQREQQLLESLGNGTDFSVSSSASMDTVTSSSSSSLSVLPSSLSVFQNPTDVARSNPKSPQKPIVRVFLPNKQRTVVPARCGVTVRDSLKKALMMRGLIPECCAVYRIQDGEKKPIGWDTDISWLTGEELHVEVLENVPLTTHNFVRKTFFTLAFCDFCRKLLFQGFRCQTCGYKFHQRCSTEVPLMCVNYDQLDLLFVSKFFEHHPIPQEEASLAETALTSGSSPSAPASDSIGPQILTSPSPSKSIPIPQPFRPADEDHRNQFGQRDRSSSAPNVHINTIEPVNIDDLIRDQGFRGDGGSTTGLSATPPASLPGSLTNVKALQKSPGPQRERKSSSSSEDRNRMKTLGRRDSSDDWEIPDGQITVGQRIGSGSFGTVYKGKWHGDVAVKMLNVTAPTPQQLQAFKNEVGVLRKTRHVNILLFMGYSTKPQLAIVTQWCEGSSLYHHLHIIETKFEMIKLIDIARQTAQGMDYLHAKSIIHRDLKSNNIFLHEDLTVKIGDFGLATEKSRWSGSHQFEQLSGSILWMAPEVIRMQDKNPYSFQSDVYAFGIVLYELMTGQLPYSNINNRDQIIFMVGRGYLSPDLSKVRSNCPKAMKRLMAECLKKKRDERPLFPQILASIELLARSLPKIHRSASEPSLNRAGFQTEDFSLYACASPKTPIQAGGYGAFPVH
T2 sequence (P15056 whole entry): as the sequence (P15056 whole entry V600E) above, with E600V counted along it

Row | Compound | cellular potency, H358 ([1]; H358 cancer cell line) | cell growth inhibition in H358 cancer line compared to LXH254 ([1]; H358 cancer line, compared to LXH254) | GI50 [1] [nM] | cellular potency, A375 ([2]; A375 cancer cell line) | GI50 [2] [nM] | IC50 [3] [nM] | cellular potency, Calu6 ([4]; Calu6 cancer cell line) | GI50 [4] [nM] | IC50 [5] [nM] | IC50 [6] [nM] | potency for bRAF and cRAF [7]
1 | Cc1ccc(NC(=O)c2ccc3c(c2)OC(F)(F)O3)cc1-c1cc(OCCO)nc(N2CCOCC2)c1 [Example 1, 2,2-difluoro-N-(3-(2-(2-hydroxyethoxy)-6-morpholinopyridin-4-yl)-4-methylphenyl)benzo[d][1,3]dioxole-5-carboxamide] | excellent cellular potency | better or similar cell growth inhibition | 480 | excellent cellular potency | 150 | 15 | excellent cellular potency | 64 | 32.5 | 87 | –
2 | Cc1ccc(NC(=O)c2ccnc(C(F)(F)F)c2)cc1-c1cc(OCCO)nc(N2CCOCC2)c1 [LXH254, reference compound] | – | – | 3000 | – | 890 | 13 | – | 920 | 43 | 38 | nanomolar potency
